In test [1] the test system is primary salivary acinar cells. As to the kind of experiment: Induction of apoptosis in primary salivary acinar cells (caspase-3 activity). The class given is cell-based, mouse.
Method: In FIG. 3A, all adherent and nonadherent primary parotid acinar cells were collected and lysed in caspase lysis buffer (BioMol QuantiZyme Colormetric Assay kit) and 15 μg of cell lysate was used to analyze the level of enzyme activity for each sample in quadruplicate. The ability of the enzyme to cleave a chromogenic substrate was read at A405 every ten minutes for seven hours and the -fold increase relative to untreated parotid cells is plotted. […] In FIG. 3B, primary submandibular acinar cells were collected in caspase lysis buffer as described above and the -fold increase relative to untreated submandibular cells is plotted. […] Graphs of caspase activity represent all data points collected from five independent experiments and Student's t-test p values were calculated using Microsoft Excel comparing two different treatment groups.
Generation and cultivation of primary salivary acinar cells. Primary salivary acinar cells were prepared from 4-5 week old female FVB or myr-Akt1 transgenic mice. […]
Induction and quantitation of apoptosis. […] Activation of caspase 3 was quantitated using BioMol QuantiZyme Colormetric Assay kit (Plymouth Meeting, Pa.). […] Caspase-3 activity in 15 μg of cellular lysate was measured by the cleavage of Ac-DEVD-pNA substrate and absorbance at A405 was quantitated in a microtiter plate reader (Molecular Devices) at 10-minute intervals for 7 hrs.
For test [2], the system named is ATM and Chk1. As to the kind of experiment: Phosphorylation of ATM, Chk1 and p53 in myr-Akt1 primary salivary acinar cells (immunoblot). Format: cell-based, mouse. The note with it: with or without siRNA that targeted MDM2.
Method: In FIG. 9A, primary salivary acinar cells isolated from myr-Akt1 mice were transfected with various control or MDM2 specific siRNA molecules. Cell lysates were collected 24-72 hrs after transfection and immunoblotted with an anti-MDM2 antibody (top panel) or anti-p53 (DO12, middle panel). […] In lanes 6 and 7, primary salivary acinar cells isolated from myr-Akt1 mice were transfected with siRNA molecules targeting MDM2 for 48 hrs.
Immunoblotting. Tissues were lysed in RIPA (150 mM NaCl, 50 mM Tris, pH 7.4, 2 mM EGTA, 1% Triton X-100, 0.25% sodium deoxycholate) supplemented with protease inhibitor cocktail (Sigma Chemical Company, St. Louis, Mo.), 100 μg/ml phenylmethylsulfonyl fluoride, and 100 U/ml aprotinin (Pierce Chemical Company, Rockford, Ill.). […] Primary salivary acinar cells were lysed in JNK lysis buffer (25 mM HEPES, pH 7.5, 20 mM β-glycerophosphate, 0.1 mM sodium orthovandadate, 0.1% Triton X-100, 0.3M NaCl, 1.5 mM MgCl2, 0.2 mM EDTA, 0.5 mM dithiothreitol, and 10 mM NaF) supplemented with aprotinin (4 μg/ml), Prefebloc (0.5 mg/ml), and leupeptin (2 μg/ml) (Pierce Chemical Company) and 1 mM sodium orthovandate, and the lysates clarified by centrifugation at 4° C. for 30 min at 13,000 rpm in a refrigerated Savant microcentrifuge (Anderson et al., 1999). Protein concentrations were determined using the BCA Protein Assay Kit (Pierce Chemical Company). […]
Test [3] deals with Akt. As to the kind of experiment: IGF1 activation of endogenous Akt in the salivary gland after tail vein injection (anti-phospho-Akt immunoblot). Conditions: for activation of Akt (immunoblotting with anti-phospho-Akt (threonine^473) antibody): salivary gland. The class given is in vivo, mice. The procedure:
(§1) FIGS. 12A-C—IGF1 activation of Akt in vivo and rescue of salivary flow rates 3 days after single γ-irradiation exposure. (FIG. 12A) FVB mice received an injection of 1, 5, 10, or 50 ng/ml recombinant IGF1. Tissue lysates were collected for immunoblotting five minutes after injection and membranes were probed for activation of Akt using a phosphorylation specific antibody. (FIG. 12B) FVB mice received an injection of 5 μg/ml recombinant IGF1 and tissue lysates were collected for immunoblotting 0, 5, 10 or 30 min after injection. Membranes were probed for activated Akt as described in FIG. 12A. Membranes were stripped and re-probed with a total antibody against ERK1/2 as a loading control in both A and B. (FIG. 12C) Four-week old female FVB mice were injected with 5 μg/ml recombinant IGF1 immediately prior to treatment with 1Gy γ-irradiation. Total saliva was collected following carbachol injection as described in FIG. 11 three days after radiation exposure. For Untreated, N=10; for IGF1, N=5; for 1 Gy, N=10, and for 1 Gy+IGF1, N=7. Statistical analysis was performed using Student's t-test in Microsoft Excel.
γ-irradiation treatment. For in vivo experiments, four-week old female FVB and myr-Akt1 transgenic mice were anesthetized with avertin (0.4-0.6 mg/gm, IP) and the head and neck region was exposed to ionizing radiation using a RS 2000 Biological Irradiator (Humphries et al., 2006). The rest of the body was shielded with 6 mm lead foil and sheets to avoid systemic effects of γ-irradiation. […] For IGF1 injections, mice were anesthetized with avertin and tails were warmed in water to allow dilation of blood vessels. Mice were injected with a total volume of 100 μl of IGF1 diluted in sterile PBS and immediately placed into the radiation chamber.
Stimulation of cells with both IGF1 and EGF produced a synergistic activation of Akt and suppression of apoptosis (Limesand et al., 2003). […] Mice were injected with 1, 5, 10, or 50 μg recombinant IGF1 and the activation of Akt was examined in the salivary gland five minutes after injection.
The inventors also determined the kinetics with which Akt was activated following injection of mice with 5 μg IGF1. Salivary glands were removed at 5, 10, and 30 minutes post-injection, tissue lysates prepared, and the activation of Akt examined by immunoblotting with anti-phospho-Akt ([…]) antibody (FIG. 12B). […] Future studies are needed to determine whether Akt remains activated for longer periods of time.
On the technique in general: A western blot detects proteins with antibodies after separation by electrophoresis.

Test [4] concerns FVB mice. As to the kind of experiment: Salivary flow rate after head and neck γ-irradiation (carbachol-stimulated saliva collection). Format: in vivo. Here is the method:
FIG. 11—Rescue of salivary flow rates 3 days after single γ-irradiation exposure in Myr-Akt1 mice. Four-week old female FVB and myr-Akt1 mice were exposed to 1, 2, or 5Gy γ-irradiation. Three days after irradiation total saliva was collected (over a five-minute period) following carbachol injection. Statistical analysis was performed using Student's t-test in Microsoft Excel.
as §1
FIG. 13—Rescue of salivary flow rates 30 days after single γ-irradiation exposure by Myr-Akt1 or injection with IGF1. Four-week old female FVB, myr-Akt1 and FVB mice injected with 5 μg/ml recombinant IGF1 were exposed to 1Gy γ-irradiation. IGF1 injections were performed immediately prior to radiation exposure as described in FIGS. 12A-C. Thirty days after exposure to γ-irradiation total saliva was collected following carbachol injection as described in FIG. 11. For unirradiated, untreated, N=8; for unirradiated myr-Akt1, N=8; for unirradiated IGF1 injected, N=8; for 1 Gy irradiated FVB, N=8, for myr-Akt1 riiadiated with 1 Gy, N=6, for FVB that received IGF1 and I Gy, N=6. Statistical analysis was performed using multiple comparison testing in the SAS system.
γ-irradiation treatment. For in vivo experiments, four-week old female FVB and myr-Akt1 transgenic mice were anesthetized with avertin (0.4-0.6 mg/gm, IP) and the head and neck region was exposed to ionizing radiation using a RS 2000 Biological Irradiator (Humphries et al., 2006). The rest of the body was shielded with 6 mm lead foil and sheets to avoid systemic effects of γ-irradiation. […] For IGF1 injections, mice were anesthetized with avertin and tails were warmed in water to allow dilation of blood vessels. […]

Test [5] has as its system salivary acinar cells. As to the kind of experiment: Activated caspase-3 staining of irradiated salivary glands (apoptotic cells). The class given is in vivo. Conditions: pretreatment of mice with IGF1. The procedure: Activated caspase-3 staining. Salivary glands were removed at various time points post-irradiation, fixed in 10% neutral buffered formalin, and then embedded in paraffin. Slides were stained for activated caspase-3 (Cell Signaling #9661; Beverly, Mass.) as previously described (Humphries et al., 2006). Cell counts were performed on a minimum of five fields of view per slide from three mice (total cells counted ranged from 1800-2500 per mouse).

The subject of test [6] is salivary acinar cells. The note with it: cited from earlier work.

For the molecule `COc1cc([C@@H]2c3cc4c(cc3[C@@H](O[C@@H]3O[C@@H]5CO[C@@H](C)O[C@H]5[C@H](O)[C@H]3O)[C@H]3COC(=O)[C@H]23)OCO4)cc(OC)c1O` [etoposide], in test [1] (cells from FVB control mice), the “apoptosis of salivary acinar cells” value is “induce apoptosis”. In addition, in test [1] (myr-Akt1 salivary acinar cells, 18 hrs after treatment), the “apoptosis (caspase-3 activation)” value is recorded as “did induce some apoptosis”. In test [2], the “phosphorylation of ATM at serine^1981” value was “resulted in the phosphorylation of ATM”.
For “IGF1: recombinant IGF1, activator of the Akt pathway, injected into the tail vein of mice”, the “phosphorylated Akt thirty minutes following administration” value in test [3] (5 μg IGF1, salivary gland) was “could still be detected”. Besides, in test [3] (5 μg IGF1, salivary glands removed at 5, 10 and 30 minutes), the “time of maximal activation of Akt after injection” value is listed as “five”. The “activation of Akt (immunoblotting with anti-phospho-Akt (threonine^473) antibody)” value in test [3] (five minutes after injection of 1 μg and 5 μg IGF1) is “results in the activation of Akt”. For the same molecule, the “activation of Akt (immunoblotting with anti-phospho-Akt (threonine^473) antibody)” value in test [3] (five minutes after injection of 10 and 50 μg IGF1 per mouse) was “did not result in the activation of Akt”. The “salivary flow rate, IGF1 alone” value in test [4] (5 μg IGF1, unirradiated mice, three days following injection) is “had no effect”. Besides, the “salivary flow rate versus unirradiated FVB control mice” value in test [4] (IGF1 injected, unirradiated, thirty-day time point) is given as “not a statistical difference”. In addition, the “irradiation-induced reduction in salivary flow rate” value in test [4] (single dose of 5 μg recombinant IGF1 immediately prior to 1 Gy, three days after exposure) is given as “completely suppressed”. The “decrease in salivary flow rate compared to controls” value in test [4] (single dose of IGF1 prior to 1 Gy γ-irradiation, 30 days after exposure) is “no decrease in salivary flow rate”. Moreover, in test [5], the “number of apoptotic cells after irradiation” value is reported as “significantly decreases the number of apoptotic cells”. Moreover, in test [6], the “activation of Akt” value is “induces activation of Akt” and the “apoptosis induced by etoposide” value is on record as “suppresses apoptosis”.

The values are drawn from patent publication US20090286731A1, “METHODS AND COMPOSITIONS FOR THE TREATMENT OF XEROSTOMIA” (THE REGENTS OF THE UNIVERSITY OF COLORADO, A BODY CORPORATE, priority 2006, published 2009).
